Measured values: PubChem BioAssay AID1259407 (Chemical Carcinogenesis Research Information System (CCRIS), 2018)
Active and inactive are the calls of the source. How the calls were made is not given here.

Test system: CCRIS mutagenicity, Ames/micronucleus/aberration tests
Test: CCRIS mutagenicity studies

## O=C1CN(/N=C/c2ccc([N+](=O)[O-])o2)C(=O)N1
End Point: IN VITRO CHROMOSOMAL ABERRATIONS, Test System: CHO CELLS, Metabolic Activation: NONE
  mutagenic call: active; positive
End Point: IN VITRO CHROMOSOMAL ABERRATIONS, Test System: CHO CELLS, Metabolic Activation: RAT, LIVER, S-9, AROCLOR 1254
  mutagenic call: active; positive
Test System: AMES SALMONELLA TYPHIMURIUM, Strain/Indicator: TA97, Metabolic Activation: NONE, Method: FLUCTUATION TEST
  mutagenic call: active; positive
Test System: AMES SALMONELLA TYPHIMURIUM, Strain/Indicator: TA97, Metabolic Activation: NONE, Method: STANDARD PLATE
  mutagenic call: active; positive
Test System: AMES SALMONELLA TYPHIMURIUM, Strain/Indicator: TA98(1,8-DNP6), Metabolic Activation: NONE, Method: STANDARD PLATE
  mutagenic call: active; positive
Test System: AMES SALMONELLA TYPHIMURIUM, Strain/Indicator: TA98(1,8-DNP6), Metabolic Activation: RAT, LIVER, S-9, 3-METHYLCHOLANTHRENE, Method: STANDARD PLATE
  mutagenic call: active; positive
Test System: AMES SALMONELLA TYPHIMURIUM, Strain/Indicator: TA98(NR), Metabolic Activation: NONE, Method: STANDARD PLATE
  mutagenic call: active; positive
Test System: AMES SALMONELLA TYPHIMURIUM, Strain/Indicator: TA98(NR), Metabolic Activation: RAT, LIVER, S-9, 3-METHYLCHOLANTHRENE, Method: STANDARD PLATE
  mutagenic call: active; positive
Test System: AMES SALMONELLA TYPHIMURIUM, Strain/Indicator: TA98, Metabolic Activation: HAMSTER, LIVER, S-9, AROCLOR 1254, Method: PREINCUBATION
  mutagenic call: active; positive
Test System: AMES SALMONELLA TYPHIMURIUM, Strain/Indicator: TA98, Metabolic Activation: NONE
  mutagenic call: inactive; negative
Test System: AMES SALMONELLA TYPHIMURIUM, Strain/Indicator: TA98, Metabolic Activation: NONE, Method: FLUCTUATION (MICROTITER)
  mutagenic call: active; positive
Test System: AMES SALMONELLA TYPHIMURIUM, Strain/Indicator: TA98, Metabolic Activation: NONE, Method: PREINCUBATION
  mutagenic call: active; positive
Test System: AMES SALMONELLA TYPHIMURIUM, Strain/Indicator: TA98, Metabolic Activation: NONE, Method: STANDARD PLATE
  mutagenic call: active; positive
Test System: AMES SALMONELLA TYPHIMURIUM, Strain/Indicator: TA98, Metabolic Activation: RAT, LIVER, S-9, 3-METHYLCHOLANTHRENE, Method: STANDARD PLATE
  mutagenic call: active; positive
Test System: AMES SALMONELLA TYPHIMURIUM, Strain/Indicator: TA98, Metabolic Activation: RAT, LIVER, S-9, AROCLOR 1254, Method: PREINCUBATION
  mutagenic call: active; positive
Test System: AMES SALMONELLA TYPHIMURIUM, Strain/Indicator: TA98, Metabolic Activation: S-9
  mutagenic call: inactive; negative
Test System: AMES SALMONELLA TYPHIMURIUM, Strain/Indicator: TA100, Metabolic Activation: HAMSTER, LIVER, S-9, AROCLOR 1254, Method: PREINCUBATION
  mutagenic call: active; positive
Test System: AMES SALMONELLA TYPHIMURIUM, Strain/Indicator: TA100, Metabolic Activation: NONE
  mutagenic call: active; positive
Test System: AMES SALMONELLA TYPHIMURIUM, Strain/Indicator: TA100, Metabolic Activation: NONE, Method: PREINCUBATION
  mutagenic call: active; positive
Test System: AMES SALMONELLA TYPHIMURIUM, Strain/Indicator: TA100, Metabolic Activation: NONE, Method: STANDARD PLATE
  mutagenic call: active; positive
Test System: AMES SALMONELLA TYPHIMURIUM, Strain/Indicator: TA100, Metabolic Activation: RAT, LIVER, S-9, AROCLOR 1254, Method: PREINCUBATION
  mutagenic call: active; positive
Test System: AMES SALMONELLA TYPHIMURIUM, Strain/Indicator: TA100, Metabolic Activation: S-9
  mutagenic call: active; positive
Test System: AMES SALMONELLA TYPHIMURIUM, Strain/Indicator: TA102, Metabolic Activation: NONE, Method: STANDARD PLATE
  mutagenic call: active; positive
Test System: AMES SALMONELLA TYPHIMURIUM, Strain/Indicator: TA1535, Metabolic Activation: HAMSTER, LIVER, S-9, AROCLOR 1254, Method: PREINCUBATION
  mutagenic call: inactive; negative
Test System: AMES SALMONELLA TYPHIMURIUM, Strain/Indicator: TA1535, Metabolic Activation: NONE, Method: PREINCUBATION
  mutagenic call: inactive; negative
Test System: AMES SALMONELLA TYPHIMURIUM, Strain/Indicator: TA1535, Metabolic Activation: RAT, LIVER, S-9, AROCLOR 1254, Method: PREINCUBATION
  mutagenic call: inactive; negative
Test System: AMES SALMONELLA TYPHIMURIUM, Strain/Indicator: TA1537, Metabolic Activation: HAMSTER, LIVER, S-9, AROCLOR 1254, Method: PREINCUBATION
  mutagenic call: inactive; negative
Test System: AMES SALMONELLA TYPHIMURIUM, Strain/Indicator: TA1537, Metabolic Activation: NONE, Method: FLUCTUATION (MICROTITER)
  mutagenic call: inactive; negative
Test System: AMES SALMONELLA TYPHIMURIUM, Strain/Indicator: TA1537, Metabolic Activation: NONE, Method: PREINCUBATION
  mutagenic call: inactive; negative
Test System: AMES SALMONELLA TYPHIMURIUM, Strain/Indicator: TA1537, Metabolic Activation: RAT, LIVER, S-9, AROCLOR 1254, Method: PREINCUBATION
  mutagenic call: inactive; negative
Test System: AMES SALMONELLA TYPHIMURIUM, Strain/Indicator: TA2638, Metabolic Activation: NONE, Method: STANDARD PLATE
  mutagenic call: active; positive
Test System: AMES SALMONELLA TYPHIMURIUM, Strain/Indicator: TA7001, Metabolic Activation: NONE, Method: FLUCTUATION (MICROTITER)
  mutagenic call: inactive; negative
Test System: AMES SALMONELLA TYPHIMURIUM, Strain/Indicator: TA7002, Metabolic Activation: NONE, Method: FLUCTUATION (MICROTITER)
  mutagenic call: active; positive
Test System: AMES SALMONELLA TYPHIMURIUM, Strain/Indicator: TA7003, Metabolic Activation: NONE, Method: FLUCTUATION (MICROTITER)
  mutagenic call: inactive; negative
Test System: AMES SALMONELLA TYPHIMURIUM, Strain/Indicator: TA7004, Metabolic Activation: NONE, Method: FLUCTUATION (MICROTITER)
  mutagenic call: active; positive
Test System: AMES SALMONELLA TYPHIMURIUM, Strain/Indicator: TA7005, Metabolic Activation: NONE, Method: FLUCTUATION (MICROTITER)
  mutagenic call: active; positive
Test System: AMES SALMONELLA TYPHIMURIUM, Strain/Indicator: TA7006, Metabolic Activation: NONE, Method: FLUCTUATION (MICROTITER)
  mutagenic call: active; positive
Test System: CHINESE HAMSTER OVARY, Strain/Indicator: CHO-AS52, Metabolic Activation: NONE
  mutagenic call: inactive; negative
Test System: CHINESE HAMSTER OVARY, Strain/Indicator: CHO-AS52, Metabolic Activation: RAT, LIVER, S-9, 3-METHYLCHOLANTHRENE
  mutagenic call: inactive; negative
Test System: CHINESE HAMSTER OVARY, Strain/Indicator: CHO-K1-BH4, Metabolic Activation: NONE
  mutagenic call: inactive; negative
Test System: CHINESE HAMSTER OVARY, Strain/Indicator: CHO-K1-BH4, Metabolic Activation: RAT, LIVER, S-9, 3-METHYLCHOLANTHRENE
  mutagenic call: active; positive
Test System: CHINESE HAMSTER OVARY, Strain/Indicator: CHO-UV5, Metabolic Activation: NONE
  mutagenic call: inactive; negative
Test System: CHINESE HAMSTER OVARY, Strain/Indicator: CHO-UV5, Metabolic Activation: RAT, LIVER, S-9, 3-METHYLCHOLANTHRENE
  mutagenic call: active; positive
Test System: E. COLI, Strain/Indicator: EE97, Metabolic Activation: NONE, Method: FLUCTUATION TEST
  mutagenic call: active; positive
Test System: E. COLI, Strain/Indicator: WP2 (PKM101), Metabolic Activation: NONE, Method: STANDARD PLATE
  mutagenic call: active; positive
Test System: E. COLI, Strain/Indicator: WP2, Metabolic Activation: NONE, Method: FLUCTUATION TEST
  mutagenic call: inactive; negative
Test System: E. COLI, Strain/Indicator: WP2, Metabolic Activation: NONE, Method: SPOT
  mutagenic call: active; positive
Test System: E. COLI, Strain/Indicator: WP2 UVRA (PKM101), Metabolic Activation: NONE, Method: STANDARD PLATE
  mutagenic call: active; positive
Test System: E. COLI, Strain/Indicator: WP2 UVRA, Metabolic Activation: NONE, Method: SPOT
  mutagenic call: active; positive
Test System: E. COLI, Strain/Indicator: WP2 UVRA, Metabolic Activation: NONE, Method: STANDARD PLATE
  mutagenic call: active; positive
Test System: MOUSE LYMPHOMA, Strain/Indicator: L5178Y (TK+/TK-), Metabolic Activation: NONE, Method: SUSPENSION/PLATE
  mutagenic call: active; positive
